Assays:
[1] = system: Patient normal fibroblast cells; assay: Cell Survival Assay (WST-1) (FIGS. 6, 7); assay type: cell-based, human
Experimental: Fibroblasts were seeded 5×10^4 cells/well (96 well format), grow in αMEM+15% for 24 hr. […] WST-1 reagent was added, 10 μl/well, 1 hr, spectrophotometry analysis. 3 wells per test sample. NC, normal control.
Assay set up as described in FIG. 6, except IGF-I (100 ng/ml), IGF2 (100 ng/ml) or FGF2 (40 ng/ml) added as indicated. Cell survival was assayed over 5 days.

[2] = system: pERK1/2 and pAKT signaling in Patient normal fibroblast cells; conditions: IGF-I 100 ng/ml, IGF-2 100 ng/ml; erdafitinib 0-300 nM
Source text: FIG. 4 depicts signaling effects. […] Test working hypothesis using Patient's normal fibroblast cells as the model system. Fibroblasts, grown in αMEM+15% FBS till ˜80% confluency, were serum-starve for 18 hr in αMEM+0.1% BSA.
In vitro assays, with read-outs: signaling (pERK, pAKT), proliferation/survival assays (WST-1).

[3] = system: Patient normal fibroblasts; assay: Immunoblot analysis for apoptosis markers (FIG. 5); assay type: cell-based, human
Source text: FIG. 5 depicts the effects on apoptosis.

[4] = in vivo
Source text: (§1) […], they underwent a biopsy for a second recurrence.

[5] = Case report: height growth of patient CC0419 during erdafitinib therapy; assay type: in vivo, human
Source text: FIG. 1 depicts a child's growth chart.
as §1

[6] = Example 3: child with short stature given erdafitinib; assay type: in vivo, human; conditions: six-month period, from the 10%
Source text: A child presents with short stature. […] Their height growth velocity increased resulting in a jump in height from the 10% up to the 50% for their age.

COc1cc(OC)cc(N(CCNC(C)C)c2ccc3ncc(-c4cnn(C)c4)nc3c2)c1 [Erdafitinib, erdafitinib]
cell survival (WST-1) ([1]; 0-300 nM, 1-5 days, serum-free media, 5×10^4 cells/well): dose-dependently decreased survival | survival of erdafitinib-treated cells with growth factors (WST-1) ([1]; IGF-I 100 ng/ml, IGF2 100 ng/ml or FGF2 40 ng/ml, over 5 days): IGF-I, but not FGF2, has significant protective effects | pERK1/2 in presence of ligands (IGF-1, IGF2) [2]: remains erdafitinib-suppressed | apoptotic markers, cleaved Caspase 3 and cleaved PARP ([3]; by 24 hrs, erdafitinib treated cells without IGF-I): detected | apoptotic markers when IGF-I was present ([3]; lysates 24 and 48 hr post-treatment, IGF-I 100 ng/ml): not detected (or significantly blunted) | Dexa bone scan interpretation [4]: consistent with osteoporosis | GH, random (rating) [4]: normal | IGF-1 Z-score [4]: −1.7 | IGF-I SDS [4]: −1.4 SDS | IGF-II (rating) [4]: normal | IGFBP-3 (rating) [4]: normal | Metabolic panel: creatine (rating) [4]: below normal | RDW (red cell distribution width) [4]: 16.4% | Testosterone, free and total (rating) [4]: abnormally low | bone age [4]: ~14 year | bone age delay compared to CA (x-ray hand and wrist) [4]: ~2 yrs | bone age, standard deviation below the mean [4]: greater than 2 standard deviation | events that led to discontinuation [4]: scoliosis of the thoracic region, kyphosis of the upper cervical region, and hip flexion contractures | hyperphosphatemia [4]: Transient hyperphosphatemia | lumbar spine bone density, standard deviations below mean for age-matched population [4]: 3.8 standard deviations | mean bone density value for the lumbar spine (Dexa) [4]: 0.6322 gm/sq·cm | musculoskeletal problems [4]: rapid growth and kyphosis/scoliosis which required surgery | x-ray hand and wrist finding: osteochondrosis [4]: A suggestion of osteochondrosis | x-ray hand and wrist finding: periosteal reaction [4]: Periosteal reaction (distal radius, ulna, first metacarpal) | adverse events that led to dose reduction ([4]; po): musculoskeletal pain and high phosphorus levels | total growth in height ([5]; 9-month therapy (7 mg then 5 mg orally daily) plus one month after cessation): 14.3 cm | total growth in height ([5]; 9-month therapy plus one month after cessation): 5.63 inches | height percentile ([5]; 10 months from initiation of treatment, from 15th percentile): 70 percentile | growth velocity ([5]; on therapy, from 3.653 cm/year before): 18.06 cm/year | growth velocity (percentile) ([5]; on therapy, from 40% before, wildtype germline FGFR): > 99% | height percentile ([5]; starting ~2 months into therapy, from ~15 percentile): 23 percentile | height percentile ([5]; within one month of initiating treatment, from 15th percentile, child): 48 percentile | height percentile for age [6]: 50%

— patent publication US12414947B2, “Use of FGFR inhibitors for treatment of idiopathic short stature” (CEDARS-SINAI MEDICAL CENTER, priority 2019, dated 2025)
